Each structure is given as a SMILES string.

In this assay the target is T1, human LPA1 (Homo sapiens, UniProt Q92633).
T1 construct: expressed in transfected cells; host or cells: Chinese hamster ovary (CHO) cells
T1 sequence (Q92633 whole entry): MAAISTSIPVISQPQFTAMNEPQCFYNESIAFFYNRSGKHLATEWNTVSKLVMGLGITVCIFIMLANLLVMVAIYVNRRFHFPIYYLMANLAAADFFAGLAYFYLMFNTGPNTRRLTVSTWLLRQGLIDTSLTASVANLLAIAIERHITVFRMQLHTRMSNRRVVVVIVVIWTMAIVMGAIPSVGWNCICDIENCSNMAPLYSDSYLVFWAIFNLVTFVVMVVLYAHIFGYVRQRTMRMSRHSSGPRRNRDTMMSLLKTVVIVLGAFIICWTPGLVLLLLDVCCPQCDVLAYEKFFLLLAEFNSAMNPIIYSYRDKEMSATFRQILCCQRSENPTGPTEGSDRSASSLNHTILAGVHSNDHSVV
Briefly: LPA1 functional antagonist assay (calcium flux). In kind it is cell-based. The settings on record: CHO cells overexpressing human LPA1; inhibition of calcium flux induced by 10 nM LPA; read-out: hLPA1 IC50. An outline of the steps:
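Dye-loaded CHO cells overexpressing human LPA1 (30 min, 37 °C) were preincubated 20 min at room temperature with compound (0.08 nM–5 μM; 0.5% DMSO; HBSS, 20 mM HEPES, 0.1% fatty-acid-free BSA), then stimulated with 10 nM LPA. IC50 is the concentration inhibiting 50% of LPA-induced calcium flux, from a 4-parameter logistic fit.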
`Cc1nc(-c2nnn(C)c2CNc2cc(OCC(C)C)ncn2)ccc1O[C@H]1CCC[C@H](C(=O)O)C1` [Example 329, (1S,3S)-3-((6-(5-(((6-Isobutoxypyrimidin-4-yl)amino)methyl)-1-methyl-1H-1,2,3-triazol-4-yl)-2-methylpyridin-3-yl)oxy)cyclohexane-1-carboxylicacid]: the IC50 was determined as 82 nM.
For `Cc1nc(-c2nnn(C)c2COc2nccc(-c3ccccc3)n2)ccc1O[C@H]1CCC[C@H](C(=O)O)C1` [Example 330, (1S,3S)-3-((2-Methyl-6-(1-methyl-5-(((4-phenylpyrimidin-2-yl)oxy)methyl)-1H-1,2,3-triazol-4-yl)pyridin-3-yl)oxy)cyclohexane-1-carboxylic acid] the value was 33 nM.
The value for `Cc1nc(-c2nnn(C)c2COc2nccc(C(C)(C)C)n2)ccc1O[C@H]1CCC[C@H](C(=O)O)C1` [Example 332] was 29 nM; that for `Cc1nc(-c2nnn(C)c2CNc2ncnc(C(C)C)n2)ccc1O[C@H]1CCC[C@H](C(=O)O)C1` [Example 333] was 43 nM; that for `Cc1nc(-c2nnn(C)c2CNc2nccc(OCC3CC3)n2)ccc1O[C@H]1CCC[C@H](C(=O)O)C1` [Example 334] was 19 nM.
For `Cc1nc(-c2nnn(C)c2CNc2nccc(OCC3(C)CC3)n2)ccc1O[C@H]1CCC[C@H](C(=O)O)C1` [Example 335] the value was 18 nM.
Regarding `Cn1nnc(-c2ccc(O[C@H]3CCC[C@H](C(=O)O)C3)cn2)c1CNc1nccc(OCC2(C)CC2)n1` [Example 336], the IC50 was found to be 28 nM.
With `Cc1nc(-c2nnn(C)c2CNc2nccc(OCC3(F)CC3)n2)ccc1O[C@H]1CCC[C@H](C(=O)O)C1` [Example 337], the IC50 is 112 nM.
The value for `Cc1nc(-c2nnn(C)c2COc2nccc(N3CCCC3)n2)ccc1O[C@H]1CCC[C@H](C(=O)O)C1` [Example 338] was 21 nM.
The value for `Cc1nc(-c2nnn(C)c2COc2cncc(C(F)(F)F)n2)ccc1O[C@H]1CCC[C@H](C(=O)O)C1` [Example 339] was 99 nM; that for `Cc1nc(-c2nnn(C)c2COc2cncc(Oc3ccccc3)n2)ccc1O[C@H]1CCC[C@H](C(=O)O)C1` [Example 340] was 25 nM; that for `Cc1nc(-c2nnn(C)c2COc2ccnc(C(F)(F)F)n2)ccc1O[C@H]1CCC[C@H](C(=O)O)C1` [Example 341] was 16 nM.
Regarding `Cc1cc(OCc2c(-c3ccc(O[C@H]4CCC[C@H](C(=O)O)C4)c(C)n3)nnn2C)ncn1` [Example 342], the IC50 is 118 nM.
For `Cc1nc(-c2nnn(C)c2COc2nccc(N(C)C)n2)ccc1O[C@H]1CCC[C@H](C(=O)O)C1` [Example 343] the value was 100 nM.
Regarding `COc1nccc(OCc2c(-c3ccc(O[C@H]4CCC[C@H](C(=O)O)C4)c(C)n3)nnn2C)n1` [Example 344], the IC50 stood at 378 nM.
In the case of `Cc1nc(-c2nnn(C)c2COc2nccc(C(C)C)n2)ccc1O[C@H]1CCC[C@H](C(=O)O)C1` [Example 345], the IC50 was found to be 9.5 nM.
For `COc1ccnc(OCc2c(-c3ccc(O[C@H]4CCC[C@H](C(=O)O)C4)c(C)n3)nnn2C)n1` [Example 346] the value was 77 nM; for `CCc1ccnc(OCc2c(-c3ccc(O[C@H]4CCC[C@H](C(=O)O)C4)cn3)nnn2C)n1` [Example 347], 73 nM.
For `Cn1nnc(-c2ccc(O[C@H]3CCC[C@H](C(=O)O)C3)cn2)c1COc1nccc(C2CC2)n1` [Example 348] the value was 118 nM.
The value for `Cc1nc(-c2nnn(C)c2COc2nccc(N3CCC3)n2)ccc1O[C@H]1CCC[C@H](C(=O)O)C1` [Example 349] was 1220 nM; that for `Cc1nc(-c2nnn(C)c2COc2ccnc(N3CCC3)n2)ccc1O[C@H]1CCC[C@H](C(=O)O)C1` [Example 350] was 565 nM.
For `COc1cc(OCc2c(-c3ccc(O[C@H]4CCC[C@H](C(=O)O)C4)cn3)nnn2C)ncn1` [Example 351], the IC50 was 34 nM.
The value for `CCc1cc(OCc2c(-c3ccc(O[C@H]4CCC[C@H](C(=O)O)C4)cn3)nnn2C)ncn1` [Example 352] was 38 nM.
The value for `Cn1nnc(-c2ccc(O[C@H]3CCC[C@H](C(=O)O)C3)cn2)c1COc1cc(C(F)F)ncn1` [Example 353] was 81 nM; that for `Cc1nc(-c2nnn(C)c2COc2cc(C(F)(F)F)nc(N3CCCC3)n2)ccc1O[C@H]1CCC[C@H](C(=O)O)C1` [Example 354] was 168 nM; that for `Cc1nc(-c2nnn(C)c2COc2cc(-c3ccccn3)ncn2)ccc1O[C@H]1CCC[C@H](C(=O)O)C1` [Example 355] was 144 nM.
For `Cc1nc(-c2nnn(C)c2COc2cc(N3CCOCC3)ncn2)ccc1O[C@H]1CCC[C@H](C(=O)O)C1` [Example 356] the value was 447 nM; for `Cc1nc(-c2nnn(C)c2COc2cc(-n3cncn3)ncn2)ccc1O[C@H]1CCC[C@H](C(=O)O)C1` [Example 357], 120 nM.
As for `Cc1nc(-c2nnn(C)c2COc2cc(-n3cccc3)ncn2)ccc1O[C@H]1CCC[C@H](C(=O)O)C1` [Example 358], the IC50 was 39 nM.
The value for `Cc1nc(-c2nnn(C)c2COc2cc(-n3ccnc3)ncn2)ccc1O[C@H]1CCC[C@H](C(=O)O)C1` [Example 359] was 466 nM.
As to `COCCCCOc1cc(OCc2c(-c3ccc(O[C@H]4CCC[C@H](C(=O)O)C4)c(C)n3)nnn2C)ncn1` [Example 360], the IC50 was determined as 100 nM.
The value for `Cc1nc(-c2nnn(C)c2COc2cc(OCCOC(C)C)ncn2)ccc1O[C@H]1CCC[C@H](C(=O)O)C1` [Example 361] was 523 nM.
For `CCOCCOc1cc(OCc2c(-c3ccc(O[C@H]4CCC[C@H](C(=O)O)C4)c(C)n3)nnn2C)ncn1` [Example 362] the value was 96 nM; for `CSc1cc(OCc2c(-c3ccc(O[C@H]4CCC[C@H](C(=O)O)C4)c(C)n3)nnn2C)ncn1` [Example 363], 22 nM; for `CSc1cc(NCc2c(-c3ccc(O[C@H]4CCC[C@H](C(=O)O)C4)c(C)n3)nnn2C)ncn1` [Example 364], 98 nM.
For `Cc1nc(-c2nnn(C)c2CNc2cc(C(F)F)ncn2)ccc1O[C@H]1CCC[C@H](C(=O)O)C1` [Example 365] the value was 117 nM.
In the case of `Cc1nc(-c2nnn(C)c2CNc2nccc(C(F)F)n2)ccc1O[C@H]1CCC[C@H](C(=O)O)C1` [Example 366], the IC50 was 135 nM.
For `CSc1ccnc(OCc2c(-c3ccc(O[C@H]4CCC[C@H](C(=O)O)C4)c(C)n3)nnn2C)n1` [Example 367] the value was 7.9 nM; for `Cn1nnc(-c2ccc(O[C@H]3CCC[C@H](C(=O)O)C3)cn2)c1COc1cc(C(F)(F)F)ncn1` [Example 368], 79 nM.
For the compound `Cc1nc(-c2nnn(C)c2COc2cc(-n3cccn3)ncn2)ccc1O[C@H]1CCC[C@H](C(=O)O)C1` [Example 369], the IC50 came out at 8.4 nM.
For `Cc1nc(-c2nnn(C)c2COc2nccc(C(C)(F)F)n2)ccc1O[C@H]1CCC[C@H](C(=O)O)C1` [Example 370] the value was 21 nM; for `Cc1nc(-c2nnn(C)c2CNc2cc(C3CC3)ccn2)ccc1O[C@H]1CCC[C@H](C(=O)O)C1` [Example 371, (1S,3S)-3-((6-(5-(((4-cyclopropylpyridin-2-yl)amino)methyl)-1-methyl-1H-1,2,3-triazol-4-yl)-2-methylpyridin-3-yl)oxy)cyclohexane-1-carboxylic acid], 16 nM.
Regarding `Cc1nc(-c2nnn(C)c2CNc2cc(-c3ccccc3)c(Cl)nn2)ccc1O[C@H]1CCC[C@H](C(=O)O)C1` [Example 372, (1S,3S)-3-((6-(5-(((6-chloro-5-phenylpyridazin-3-yl)amino)methyl)-1-methyl-1H-1,2,3-triazol-4-yl)-2-methylpyridin-3-yl)oxy)cyclohexane-1-carboxylic acid], the IC50 was determined as 199 nM.
As to `Cc1nc(-c2nnn(C)c2CNc2cc(C3CC3)ncn2)ccc1O[C@H]1CCC[C@H](C(=O)O)C1` [Example 373], the IC50 is 80 nM.
For `Cc1nc(-c2nnn(C)c2CNc2ccnc(C3CC3)n2)ccc1O[C@H]1CCC[C@H](C(=O)O)C1` [Example 374] the value was 90 nM.
The value for `Cc1nc(-c2nnn(C)c2Cc2cccc(-c3ccccc3)n2)ccc1O[C@H]1CCC[C@H](C(=O)O)C1` [Example 376] was 110 nM.
For `Cc1nc(-c2nnn(C)c2Cc2cc(-c3ccccc3)ccn2)ccc1O[C@H]1CCC[C@H](C(=O)O)C1` [Example 377] the value was 7.2 nM.
Turning to `Cc1nc(-c2nnn(C)c2Cc2nccc(-c3ccccc3)n2)ccc1O[C@H]1CCC[C@H](C(=O)O)C1` [Example 378], the IC50 amounted to 24.9 nM.
On to `Cc1nc(-c2nnn(C)c2CN(C)c2ncnc(C3CC3)n2)ccc1O[C@H]1CCC[C@H](C(=O)O)C1` [Example 379, (1S,3S)-3-{[6-(5-{[(4-cyclopropyl-1,3,5-triazin-2-yl)(methyl)amino]methyl}-1-methyl-1H-1,2,3-triazol-4-yl)-2-methylpyridin-3-yl]oxy}cyclohexane-1-carboxylic acid], for which the IC50 was found to be 93 nM.
For `CCCc1cncc(NCc2c(-c3ccc(O[C@H]4CCC[C@H](C(=O)O)C4)c(C)n3)nnn2C)n1` [Example 380, (1S,3S)-3-((2-Methyl-6-(1-methyl-5-(((6-propylpyrazin-2-yl)amino)methyl)-1H-1,2,3-triazol-4-yl)pyridin-3-yl)oxy)cyclohexane-1-carboxylic acid] the value was 94 nM; for `CCCCc1ncnc(N(C)Cc2c(-c3ccc(O[C@H]4CCC[C@H](C(=O)O)C4)c(C)n3)nnn2C)n1` [Example 381], 38 nM; for `CCCCc1cncc(NCc2c(-c3ccc(O[C@H]4CCC[C@H](C(=O)O)C4)c(C)n3)nnn2C)n1` [Example 382], 12 nM.
Turning to `Cc1nc(-c2nnn(C)c2CNc2nccc(OC3CC3)n2)c(F)cc1O[C@H]1CCC[C@H](C(=O)O)C1` [Example 383], the IC50 worked out at 227 nM.
For `CCOc1ccnc(NCc2c(-c3nc(C)c(O[C@H]4CCC[C@H](C(=O)O)C4)cc3F)nnn2C)n1` [Example 384] the value was 48 nM.

The values above are taken from patent US11267800B2, “Cyclohexyl acid triazole azines as LPA antagonists” (BRISTOL-MYERS SQUIBB COMPANY, priority 2017, dated 2022).
